Earlier results as cited in US9913840B2, “Formulations for aripiprazole delivery transdermally” (Corium International, Inc., priority 2015, dated 2018).

Conditions: at room temperature

aqueous solubility: less than 1 μg/mL
SMILES: O=C1CCc2ccc(OCCCCN3CCN(c4cccc(Cl)c4Cl)CC3)cc2N1 [Aripiprazole]
